# Reference: patent US10709724B2, “Methods of treating mitochondrial dysfunction” (Ecole Polytechnique Federale de Lausanne (EPFL), priority 2011, dated 2020)
# Several values for one entry are separate records, joined by “and”; a condition that tells them apart may be missing. Equal entries are not always repeated. Entries after “also recorded” stand apart in the source; their conditions may differ.
# Tests used:
# C. elegans [1] = assay: Worm lifespan analysis; format: in vivo; settings: for variation compared to control (%): vs N2 + water
# Description: Worm Lifespan Analysis Lifespan tests were performed as described in Mouchiroud et al (L. Mouchiroud et al., Pyruvate imbalance mediates metabolic reprogramming and mimics lifespan extension by dietary restriction in Caenorhabditis elegans. Aging Cell 10, 39 (2011)). Briefly, 60-100 animals were used per conditions and scored every other day. All lifespan experiments were performed at 20° C. […] Animals were exposed to compounds during the full life from eggs until death. To ensure a permanent exposure to the compound, plates were changed twice a week. All the compounds used in this study were dissolved in a water stock solution.
# C2C12 myotubes = assay: Intracellular NAD+ content in C2C12 myotubes treated with PARP inhibitors; format: cell-based
# Description: Cell Culture, Transfection, Adenoviral Infection and Mitochondrial Characterization. HEK293T, MEF and C2C12 cells were cultured in DMEM (4.5 g/l glucose, 10% FCS). PARP-1^+/+ and PARP-1^−/− MEFs were prepared as described in (Menissier-de Murcia et al., 1997). SIRT1 and MEFs were kindly provided by Fred Alt (Chea et al., 2005). SIRT3 MER were established according to standard techniques from conditional SERT3^−/− mice. (Picard, F., Gehin, M., Annicotte, J., Rocchi, S., Champy, M. F., O'Malley, B. W., Chambon, P., and Auwerx, J. (2002). SRC-1 and TIF2 control energy balance between white and brown adipose tissues. Cell 111, 931-941.) Deletion of the SIRT3 gene was induced via infection with adenovirus encoding for the Cre recombinase. HEK293T cells were transfected using JetPei reagent (Polyplus Transfections, Illkirch, France) according to the manufacturer's instructions. C2C12 cells were differentiated in DMEM (4.5 g/L glucose, 2% horse serum) after reaching confluency for 2 days, followed by 2 days of PJ34 treatment (10 μM). PARP-1 shRNA constructs were described in (Shah et al., 2005). Human PARP-1 and siRNAs were obtained from Dharmacon (Thermo Scientific). The adenovirus encoding for FLAG-HA-PGC-1α, control and SIRT1 shRNAs were a kind gift from Pere Puigserver and were used (MOI=100) in C2C12 myotubes as described (Canto et al., 2009). Mitochondrial charge determination was performed as described (Bai et al., 2001) and DNA strand breaks were quantified by TUNEL assays according to the manufacturer's instructions (Millipore).
# NAD^+ NAM Determination. NAD^+ levels in cultured cells were determined using a commercial kit (Enzychrom™, BioAssays Systems, CA). For tissue samples NAD^+ and NAM levels were determined as described in (Sauve et al., 2005). In brief, to a weighed aliquot of frozen pulverized tissue we added as standards, ^18O-NAD^+ (typically 2.00 nmol) and ^18O-NAM (typically 2.00 nmol). 70 L of ice-cold 7% perchloric acid was then added and the sample was vortexed and sonicated three times, then centrifuged. Clear supernatant was removed and neutralized by additions of 3 M NaOH and 1 M phosphate buffer (pH=9), then centrifuged. Clear supernatant was injected onto HPLC C-18 column with 20 mM ammonium acetate eluent to separate NAD^+ and NAM from other cellular components, NAD^+ and NAM peaks (260 nm absorbance) were collected. Collections were lyophilized to dryness and subjected to MALDI-TOF analysis. For NAD^+ measurement, ratio of intensities for m/z=664 and 666 peaks, corresponding to ^16O- and ^18O-NAD^+ isotopomers, was multiplied by 2.00 nmol and then divided by tissue weight to determine NAD+ concentration in the sample. For NAM the ratio of intensities for m/z=123 and 125 peaks, corresponding to ^16O- and ^18O-NAM isotopomers, was multiplied by 2.00 nmol and then divided by tissue weight to determine NAM concentration in the sample. Corrections were applied for isotopic abundance. Other NAD metabolites were determined as previously described (Yang and Sauve, Synthesis of nictotinamide riboside and derivatives: effective agents for increasing nictinomide adenine dinucleotide concentrations in mammalian cells. J Med Chem 50, 6458-6461 (2006)).
# C57Bl/6J mice = assay: NAD+ content in mouse tissues after one week of supplemented chow; format: in vivo; settings: 400 mg/kg/day in chow; for muscle NAD+ content: quadriceps
# Description: Animal Experiments. […] In other animal experiments, 8 weeks-old male C57Bl/6J mice were purchased from Charles River and powder chow (D12450B) and high fat (D12492) diets were from Research Diets Inc (New Brunswick, N.J., USA). 80 ml of water per kg of powder CD were used to make food pellets. 40 ml of water per kg of powder HFD were used to make food pellets. […] Mice were housed separately, had ad libitum access to water and food and were kept under a 12 h dark-light cycle. Mice were fed with homemade pellets from 10 weeks of age. […] All animal experiments were carried out according to local national and EU ethical guidelines. To monitor body weight, mice were weighed and the food consumption was measured each week on the same day. In case of PJ34 treatment, mice received each 12 h (at 7:00 and 19:00) 10 mg/kg PJ34 by intraperitoneal injection for 5 continuous days. In all studies animals were killed (at 14:00) either after CO2 inhalation or cervical dislocation after 6 h of fasting (starting at 8:00), and tissues were collected and processed as specified below. […] Plasma insulin and was determined in heparinized plasma samples using specific ELISA kits (Mercodia). Blood samples were collected in heparinized tubes and plasma was isolated after centrifugation. Plasma parameters were measured using a Cobas c111 (Roche Diagnostics). […] The respiratory quotient was the ratio of CO2 production over O2 consumption. During actimetry, beamline crossings were summarized each 15 minutes.
# NAD^+ NAM Determination. NAD^+ levels in cultured cells were determined using a commercial kit (Enzychrom™, BioAssays Systems, CA). […] 70 L of ice-cold 7% perchloric acid was then added and the sample was vortexed and sonicated three times, then centrifuged. Clear supernatant was removed and neutralized by additions of 3 M NaOH and 1 M phosphate buffer (pH=9), then centrifuged. Clear supernatant was injected onto HPLC C-18 column with 20 mM ammonium acetate eluent to separate NAD^+ and NAM from other cellular components, NAD^+ and NAM peaks (260 nm absorbance) were collected. Collections were lyophilized to dryness and subjected to MALDI-TOF analysis. […] Corrections were applied for isotopic abundance.
# GPR109A = target: T1, GPR109A (Homo sapiens, UniProt Q8TDS4); format: cell-based; settings: GPR109A-expressing Chem-4 cells
# T1 construct: host or cells: Chem-4 cells (Ready-to-Assay GPR109A Nicotinic Acid Receptor Cells)
# T1 sequence (Q8TDS4 whole entry): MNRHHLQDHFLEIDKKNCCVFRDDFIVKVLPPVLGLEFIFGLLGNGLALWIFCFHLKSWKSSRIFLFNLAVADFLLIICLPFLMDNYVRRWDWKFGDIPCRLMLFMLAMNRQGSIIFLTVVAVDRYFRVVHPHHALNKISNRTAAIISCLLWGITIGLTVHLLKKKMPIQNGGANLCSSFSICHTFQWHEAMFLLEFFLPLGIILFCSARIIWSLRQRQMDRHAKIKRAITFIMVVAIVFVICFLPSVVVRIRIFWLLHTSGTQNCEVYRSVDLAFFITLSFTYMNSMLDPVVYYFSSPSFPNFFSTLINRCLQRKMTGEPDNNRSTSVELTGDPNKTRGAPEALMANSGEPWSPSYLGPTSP
# Description: GPR109A—Calcium Mobilization Assay. Ready-to-Assai™ GRP109A Nicotinic Acid Receptor Cells were used to measure calcium mobilization as specified by the manufacturer (Millipore). Calcium flux was determined using excitation at 340 and 380 nm in a fluorescence spectrophotometer (Victor X4, Perkin Elmer) in a 180 seconds time course, adding the ligand at 60 seconds. Internal validation was made using 0.1% Triton X-100 for total fluorophore release and 10 mM EGTA to chelate free calcium. Similarly, GPR109A specificity was internally validated using control cells devoid of GRP109A overexpression. Liver triglyceride measurement Liver triglycerides were measured from 20 mg of liver tissue using a variation of the Folch method, as described in Bai et al. (Bai et al., PARP-2 regulates SIRT1 expression and whole-body energy expenditure. (2011). Cell Metab 13, 450-460.
# C. elegans [2] = assay: Worm respiration assay (Seahorse XF24); format: in vivo; settings: day 3 adult worms
# Description: (§1) Worm Respiration Assays Oxygen consumption was measured using the Seahorse XF24 equipment (Seahorse Bioscience Inc., North Billerica, Mass.) as described in Yamamoto et al. Typically, 200 animals per conditions were recovered from NGM plates with M9 medium, washed three times in 2 mLM9 to eliminate residual bacteria, and resuspended in 500 μL M9 medium. Worms were transferred in 24-well standard Seahorse plates (#100777-004) (50 worms per well) and oxygen consumption was measured 6 times. Respiration rates were normalized to the number of worms in each individual well. NAD measurement by HPLC For NAD+ quantification, approximately 1000 worms were collected in M9 buffer, washed five times to remove residual bacteria and flash-frozen in liquid nitrogen and stored at −80° C. until analysis. Extraction was started by adding 250 μl of 1.6M perchloric acid on frozen samples, followed by extensive homogenization in a Qiagen tissuelyser, and centrifugation at 20.000 g for 15 min. The supernatant was recovered and neutralized with a 3M potassium carbonate solution. After centrifugation, 100 μl of supernatant was filtered and used for NAD measurement using an HPLC system (Agilent) with a Supelco LC-18-T column (Sigma), as described in Yoshino et al. (Yoshino, K. F. Mills, M. J. Yoon, S. Imai, Nicotinamide Mononucleotide, a Key NAD(+) Intermediate, Treats the Pathophysiology of Diet- and Age-Induced Diabetes in Mice. Cell Metab 14, 528 (2011)).
# C. elegans [3] = assay: Quantitative RT-PCR in worms; format: in vivo
# Description: mRNA and mtDNA Analysis. Total RNA was prepared using TRIzol (Invitrogen) according to the manufacturer's instructions. RNA was treated with DNase, and 2 μg of RNA was used for reverse transcription (RT). cDNA was purified on QIAquick PCR cleanup columns (Qiagen, Valencia, Calif., USA). 50× diluted cDNA was used for RT-quantitative PCR (RT-VCR) VCR) reactions (Bai et al., 2007). The RT-qPCR reactions were performed using the Light-Cycler system (Roche Applied Science) and a qPCR Supermix (Qiagen) with the primers for mice summarized in Table 1 and 4, and with the primers for worms summarized on Table 7. mtDNA quantification was performed as described (Lagouge et al., 2006) with the primers indicated in Table 2 and 5.
# C. elegans [4] = assay: NAD measurement by HPLC in worms; format: in vivo; settings: day 4 of adulthood
# Description: as §1, with “After centrifugation, 100 μl of supernatant was filtered and used for NAD measurement using an HPLC system (Agilent) with a Supelco LC-18-T column (Sigma), as described in Yoshino et al. (Yoshino, K. F. Mills, M. J. Yoon, S. Imai, Nicotinamide Mononucleotide, a Key NAD(+) Intermediate, Treats the Pathophysiology of Diet- and Age-Induced Diabetes in Mice. Cell Metab 14, 528 (2011)).” left out
# C. elegans [5] = assay: Confocal microscopy of mitochondria in body wall muscle (pmyo-3::mito::GFP reporter); settings: in vivo
# Description: Confocal Microscopy and Image Processing Worms were immobilized with 6 mM solution of tetramisole hydrochloride (Sigma, Buchs, Switzerland) in M9 and mounted on 6% agarose pads on glass slides. Images of worms were acquired using Zeiss LSM 700 Upright confocal microscope (Carl Zeiss AG, Oberkochen, Germany) under non-saturating exposure conditions. All the snapshots were taken from the same part of C. elegans: muscles from the upper part of the worm, excluding the regions of oesophagus and vulva. For each condition multiple worms were observed and imaged. Image processing was performed with the Fiji software. One of the critical issues during the imaging process was the position of the worm, as it influences the level of background. For the uniformity of the represented images, contrast and brightness were adjusted in order, to eliminate the undesirable background signal. Neither of these manipulations was affecting the mitochondrial shape. Tracing of the mitochondrial network contour was done by the use of Gaussian blur filter followed by the application of Laplacian operator.
structure (smiles),measurement,setting,value
C[C@]1(c2nc3c(C(N)=O)cccc3[nH]2)CCCN1 [ABT-888],lifespan extension,C. elegans [1]; 100 nM (FIG. 34B),15%
same,mean lifespan ± SE,"C. elegans [1]; N2, 100 nM, listed as ABT",22.3 ± 1.01 days and 22.5 ± 1.05 days
same,mean lifespan ± SE,"C. elegans [1]; N2, 500 nM",22.1 ± 1.20 days
same,variation compared to control (%),"C. elegans [1]; N2, 500 nM",+13.9%
same,mean lifespan ± SE,"C. elegans [1]; N2, 1000 nM",20.0 ± 1.23 days
same,variation compared to control (%),"C. elegans [1]; N2, 1000 nM",+3.6%
O=C1N=C2SCC=C2c2ccccc21 [TIQ-A],intracellular NAD+ content upon PARP inhibition,C2C12 myotubes,confirmed the increase in NAD^+ content
"NC(=O)c1ccc[n+]([C@@H]2O[C@H](COP(=O)([O-])O)[C@@H](O)[C@H]2O)c1 [NMN, nicotinamide mononucleotide, reference compound]",NAD+ levels in liver,C57Bl/6J mice,increased NAD^+ levels in liver
same,muscle NAD+ content,C57Bl/6J mice,only NR and NA significantly enhanced muscle NAD^+ content
same,GPR109A activation (calcium flux),GPR109A,did not activate GPR109A
"NC(=O)c1cccnc1 [NAM, nicotinamide]",oxygen consumption (respiration),C. elegans [2],increased respiration; also recorded: Oxygen consumption was increased
same,"expression of genes of mitochondrial oxidative metabolism (cts-1, cox-4)",C. elegans [3]; day 3 of adulthood,trend for increased cts-1 expression
same,daf-16 expression,C. elegans [3]; in vivo,without affecting daf-16 mRNA levels; also recorded: daf-16 was unchanged
same,sod-3 expression,C. elegans [3]; in vivo,significantly higher sod-3 expression; also recorded: expression of sod-3 was increased
same,increase of worm lifespan,C. elegans [1]; FIG. 39B,18%
same,mean lifespan ± SE,"C. elegans [1]; N2, 200 nM",23.5 ± 1.03 days
same,variation compared to control (%),"C. elegans [1]; N2, 200 nM",+18.1%
same,mean lifespan ± SE,"C. elegans [1]; N2, 500 nM",22.6 ± 0.92 days
same,variation compared to control (%),"C. elegans [1]; N2, 500 nM",+13.5%
same,mean lifespan ± SE,"C. elegans [1]; N2, 1000 nM",21.8 ± 0.85 days
same,variation compared to control (%),"C. elegans [1]; N2, 1000 nM",+9.5%
same,lifespan in sir-2.1(ok434) mutant / sir-2.1 dependence,C. elegans [1]; sir-2.1(ok434) mutant worms,sir-2.1-dependent fashion
same,lifespan,C. elegans [1]; wild type N2 worms,extended lifespan
same,NAD+ levels in C. elegans,C. elegans [4],increased NAD+ levels
same,mitochondrial content in body wall muscle,C. elegans [5],increase muscle mitochondrial content; also recorded: increased mitochondrial content in body wall muscle
same,mitochondrial morphology in body wall muscle,C. elegans [5],affect mitochondrial morphology
"O=C(O)c1cccnc1 [NA, nicotinic acid, reference compound]",muscle NAD+ content,C57Bl/6J mice,significantly enhanced muscle NAD^+ content
